# Results as given in patent US20230399319A1, “Acylsulfamide Compound and Pharmaceutical Use Therefor” (Japan Tobacco Inc., priority 2019, published 2023).
# Where two headings read alike, the source gives them in different places.
# Key:
# [1] = system: intra-articular urate-injected arthritis model; conditions: cited from earlier work
# [2] = system: Mice expressing CAPS-related NLRP3 mutations; conditions: strain expressing CAPS-related NLRP3 mutations; cited from earlier work
# MOG35-55EAE model mice = conditions: administration after the onset; cited from earlier work
# NLRP3 inflammasome = NLRP3 inflammasome (Homo sapiens (Human), UniProt Q96P20); assay: Evaluation of NLRP3 inflammasome inhibitory activity (inhibition of IL-1β production in THP1-Null cells, LPS/Nigericin)
# Protocol: The NLRP3 inflammasome inhibitory activity of test compounds were evaluated CM the basis of the inhibitory activity of the IL-1β, production in THP1-Null cells (Product Number: thp-null, InvivoGen).
# A solution containing a test compound (20 μL/well) was added to test compound-setting wells. […] The supernatant of the culture was cryonically stored (set at −20° C.) until measurement of IL-1β.
# The amount of IL-1β in the culture supernatant was quantitated with AlphaLISA IL1 beta kit (Product Number: AL220C, Perkin Elmer). […] Inhibition rates of the test compound-setting wells were calculated on the basis of 100% for the blank-setting wells and 0% for the control-setting wells.
# [3] = IL-1β production in THP1-Null cells, PMA/LPS primed, Nigericin 7.5 μmol/L
# [4] = inhibition of IL-1β production in THP1-Null cells
# Sequence of NLRP3 inflammasome (Q96P20 whole entry): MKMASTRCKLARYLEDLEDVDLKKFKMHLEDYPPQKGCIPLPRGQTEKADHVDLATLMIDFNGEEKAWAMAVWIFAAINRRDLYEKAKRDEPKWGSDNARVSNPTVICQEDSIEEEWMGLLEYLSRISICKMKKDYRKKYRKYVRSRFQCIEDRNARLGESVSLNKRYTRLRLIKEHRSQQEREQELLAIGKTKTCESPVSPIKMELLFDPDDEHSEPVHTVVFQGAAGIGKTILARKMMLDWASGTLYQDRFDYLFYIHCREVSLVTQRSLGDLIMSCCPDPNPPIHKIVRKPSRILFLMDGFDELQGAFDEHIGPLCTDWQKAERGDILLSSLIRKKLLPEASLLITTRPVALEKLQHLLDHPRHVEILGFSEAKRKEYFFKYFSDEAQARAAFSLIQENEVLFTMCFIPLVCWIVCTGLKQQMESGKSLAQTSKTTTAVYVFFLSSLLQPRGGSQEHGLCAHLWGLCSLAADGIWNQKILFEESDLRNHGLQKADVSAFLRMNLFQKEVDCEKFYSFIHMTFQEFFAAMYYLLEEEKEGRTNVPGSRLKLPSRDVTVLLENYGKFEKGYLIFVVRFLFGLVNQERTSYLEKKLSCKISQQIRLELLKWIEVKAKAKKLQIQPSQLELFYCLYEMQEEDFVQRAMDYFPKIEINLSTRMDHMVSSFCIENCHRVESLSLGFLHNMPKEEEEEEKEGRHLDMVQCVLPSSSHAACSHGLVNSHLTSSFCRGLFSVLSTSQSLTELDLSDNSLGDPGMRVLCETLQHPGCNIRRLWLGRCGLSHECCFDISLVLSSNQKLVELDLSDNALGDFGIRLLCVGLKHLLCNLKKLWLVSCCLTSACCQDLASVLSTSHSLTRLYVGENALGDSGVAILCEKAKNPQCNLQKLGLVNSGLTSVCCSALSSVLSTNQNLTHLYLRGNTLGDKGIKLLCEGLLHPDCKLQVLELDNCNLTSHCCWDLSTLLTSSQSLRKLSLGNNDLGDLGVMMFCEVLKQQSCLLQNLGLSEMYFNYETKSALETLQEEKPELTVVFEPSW
SMILES,IC50 (NLRP3 inflammasome; [3]) [nM],IC50 (NLRP3 inflammasome; [4]) [nM],also measured
CS(=O)(=O)CCC#N [OLT1177],–,–,arthritis [1]: suppressed arthritis
O=C(O)c1ccc(/C=C2/SC(=S)N(Cc3cccc(C(F)(F)F)c3)C2=O)cc1 [CY-09],–,–,survival [2]: improved the survival; systemic lethal inflammation [2]: suppressed systemic lethal inflammation
"COc1ccc(Cl)cc1C(=O)NCCc1ccc(S(=O)(=O)NO)cc1 [JC-171, 5-Chloro-N-[2-(4-hydroxysulfamoyl-phenyl)-ethyl]-2-methoxy-benzamide]",–,–,impairment of motor function (MOG35-55EAE model mice): inhibited the impairment of motor function
Cc1ccc2c(c1Nc1nc(C(=O)NS(=O)(=O)N3CCCC3)co1)CCC2 [Example 31],310,–,–
O=C(NS(=O)(=O)N1C2CCC1CC2)c1coc(Nc2c3c(c(Cl)c4c2CCC4)CCC3)n1 [Example 50],720,–,–
COC1COCCN(S(=O)(=O)NC(=O)c2coc(Nc3cc(C(F)(F)F)ccc3C)n2)C1 (racemic) [Example 2-076],–,–,IC50 (NLRP3 inflammasome): 25 nM
CCCC(=O)N1CCCN(S(=O)(=O)NC(=O)c2coc(Nc3cc(C(F)F)ccc3C(C)C)n2)CC1 [Example 2-223],–,71,–
Cc1ccc(C(F)(F)F)cc1Nc1nc(C(=O)NS(=O)(=O)N2CCC(=O)N(C)CC2)co1 [Example 2-093],–,59,–
O=C(NS(=O)(=O)N1CC2CCC(C1)O2)c1coc(Nc2c3c(c(F)c4c2CCC4)CCC3)n1 [Example 59],44,–,–
Cc1ccc(C2(C)CC2)cc1Nc1nc(C(=O)NS(=O)(=O)N(C)C)co1 [Example 2-044],–,60,–
COCC1CCN(S(=O)(=O)NC(=O)c2coc(Nc3cc(C)ccc3C(C)C)n2)CCO1 (stereo not drawn) [Example 2-309],–,39,–
Cc1cc(Nc2nc(C(=O)NS(=O)(=O)N3CCOC(CS(=O)(=O)C(C)C)CC3)co2)c(C)cc1F (stereo not drawn) [Example 3-004],26,–,–
CS(=O)(=O)C1CCN(S(=O)(=O)NC(=O)c2coc(Nc3c4c(c(Cl)c5c3CCC5)CCC4)n2)C1 (racemic) [Example 47],–,–,IC50 (NLRP3 inflammasome): 420 nM
CC(C)c1cn(C(C)C)nc1Nc1nc(C(=O)NS(=O)(=O)N2CCCC2)co1 [Example 2-139],–,270,–
Cc1ccc(C2CC2)cc1Nc1nc(C(=O)NS(=O)(=O)N2CCC(O)C2)co1 (racemic) [Example 2-002],–,–,IC50 (NLRP3 inflammasome): 160 nM
O=C(NS(=O)(=O)NCc1ccccc1)c1cnc(Nc2c3c(cc4c2CCC4)CCC3)o1 [Example 8],440,–,–
CN(C)S(=O)(=O)NC(=O)c1coc(Nc2c3c(c(Cl)c4c2CCC4)CCC3)n1 [Example 28],120,–,–
O=C(NS(=O)(=O)N1CC2CCC(C1)O2)c1coc(Nc2c3c(c(Cl)c4c2CCC4)CCC3)n1 [Example 51],< 30,–,–
CC(C)c1cnc(C(F)(F)F)nc1Nc1nc(C(=O)NS(=O)(=O)N2CCCOCC2)co1 [Example 2-144],–,–,inhibition at 3 µM (NLRP3 inflammasome; read-out: % inhibition at 3 μM): 23%
Cc1ccc(C(F)(F)F)cc1Nc1nc(C(=O)NS(=O)(=O)N2CCCN(C(=O)C3CCOC3)CC2)co1 (racemic) [Example 2-216],–,–,IC50 (NLRP3 inflammasome): 180 nM
CC(C)c1nn(C(C)C)cc1Nc1nc(C(=O)NS(=O)(=O)N2CCCOCC2)co1 [Example 2-090],–,570,–
CCc1ccc(C(F)(F)F)cc1Nc1nc(C(=O)NS(=O)(=O)N(C)C)co1 [Example 2-060],–,46,–
CO[C@@H]1CCN(S(=O)(=O)NC(=O)c2coc(Nc3c4c(c(Cl)c5c3CCC5)CCC4)n2)C1 [Example 36],92,–,–
COC(=O)N1CCCN(S(=O)(=O)NC(=O)c2coc(Nc3cc(C(F)(F)F)ccc3C)n2)CC1 [Example 2-101],–,39,–
Cc1ccc(C2(C#N)CC2)cc1Nc1nc(C(=O)NS(=O)(=O)N2CCCOCC2)co1 [Example 2-107],–,150,–
Cc1ccc(C(C)C)cc1Nc1nc(C(=O)NS(=O)(=O)N2CCCOCC2)cs1 [Example 2-056],–,< 30,–
